The values below come from PubChem BioAssay AID743394 (Broad Institute, 2014).

Each structure is given as a SMILES string. The source made the active and inactive calls.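 How the source made its calls: active means 40% activation versus positive control reached by fitted dose-response curve at or below highest valid tested dose; inconclusive means poor fit quality, or flat fit with activation between 30% and 70%; inactive means the rest.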

The nature of one assay: inactive X chromosome reactivation in XiGFP fibroblasts, dose response, imaging, 68-5-11 mouse fibroblasts, GFP, cherry-pick (AID 743394).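 Further: sensitizer 5-aza-dC present in the wells at 0.5 mM final.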 The following applies: 68-5-11 mouse fibroblast XiGFP reporter, % GFP-positive imaging, 3 d; at 19.5 µM (top of the series).
With `COCCCn1c(N)c(C(=O)Nc2ccccc2)c2nc3ccccc3nc21`, the activation was -0.127% (inactive).

Still in this assay, the particulars now being: 68-5-11 mouse fibroblast XiGFP reporter, % GFP-positive imaging, 3 d; at 19.5 µM (top of the series); cells co-treated with 5-aza-dC sensitizer; scaled: neutral wells 0, ellipticine wells 100.
Take `C[C@@H]1CN([C@@H](C)CO)C(=O)c2cc(NS(=O)(=O)c3cn(C)cn3)ccc2O[C@@H](C)CCCCO[C@H]1CN(C)C(=O)c1ccccc1`: the activation is 0.016% (inactive). Same read-out and setting: the figure for `Cc1ccsc1/C=N/n1c(-c2cc(-c3ccccc3)n[nH]2)n[nH]c1=S` is 0.001% (inactive); for `Cc1ccccc1C1c2[nH]c3ccccc3c2CCN1Cc1cccn1-c1ncccn1` (centres undefined) it is 0.097% (inactive). On the same count and under the same terms, the figure for `CNc1ccc([N+](=O)[O-])cc1C(=O)O` is 0.697% (inactive). The same measure, in the same setting: the figure for `O=C(NNC(=O)c1cc2ccccc2o1)c1ccc(Cl)cc1` is 0.006% (inactive); for `COC(=O)c1c(NC(=O)c2ccc(C)cc2)csc1C` it is 0.018% (inactive). On to `C/C(=N\NC(=O)CC1N=C(Cc2ccccc2)NNC1=O)c1ccc(Br)cc1` (centres undefined), for which the activation is 0.028% (inactive).

`Cc1ccc(O)c(N=Nc2ccc(S(=O)(=O)N3CCCC3)cc2)c1`: the activation is 0.067% (inactive). For `Cc1ccc(Nc2nc(N)nc(COC(=O)C3=COCCO3)n2)cc1`, the activation is 0.004% (inactive). Still for that read-out and setting: the same measure for `Brc1ccc(-c2cn3ccccc3n2)cc1`: -0.039% (inactive); for `CN(Cc1nc(CCc2ccccc2)no1)Cc1cccs1`: -0.037% (inactive); for `CC(C)C#Cc1ccc([C@@H]2[C@@H](CO)N3C(=O)CN(C(=O)c4ccc5c(c4)OCO5)C[C@H]23)cc1`: 0.09% (inactive). On the same count and under the same terms, the same measure for `CN1CCN(S(=O)(=O)c2ccc(C#N)cc2)C(c2ccccc2)C1` (centres undefined): 0.227% (inactive). On the same count and under the same terms, the same measure for `Cn1cc(C(=O)N/N=C/C(Br)=C/c2ccccc2)ccc1=O`: -0.07% (inactive). With `CC(=O)c1ccc(NS(=O)(=O)c2ccc(N/C=C/C(=O)c3ccc(F)cc3)cc2)cc1`, the activation is 0.351% (inactive).

Consider `NNC(=O)c1sc(-c2ccc(Cl)cc2)cc1N`, for which the activation was 2.31% (inactive). The same measure, in the same setting: the same measure for `O=C(CCN1CCCCC1)NCC[C@@H]1CC[C@H](NC(=O)C2CCCCC2)[C@H](CO)O1`: 0.052% (inactive); for `CCOC(=O)c1c(C)[nH]c(N=Nc2ccc(OC)cc2)c1C`: 1.01% (inactive); for `CCC(=O)OCCNc1cc(Sc2nc3ccccc3[nH]2)c2nonc2c1[N+](=O)[O-]`: -0.037% (inactive). Same read-out and setting: the same measure for `COC(=O)c1ccc(-n2c(C)cc(C(=O)COC(=O)C3=COCCO3)c2C)cc1`: -0.033% (inactive). The same measure, in the same setting: the same measure for `[N-]=[N+]=CC(=O)C(O)(c1ccccc1)C(Cl)c1ccccc1` (centres undefined): 0.034% (inactive); for `COc1ccc2c(c1)C(C)=CC(C)(C)N2S(=O)(=O)c1ccc(Br)cc1`: 0.373% (inactive). For the compound `COC(=O)c1c(NC(=O)c2ccccc2)sc2c1CC(C)(C)NC2(C)C`, the activation is 0.021% (inactive). Same read-out and setting: the figure for `O=C(COC(=O)/C=C/c1cccc(C(F)(F)F)c1)NC(=O)NCc1ccco1` is -0.07% (inactive). Same read-out and setting: the same measure for `COc1ccc(CCNC(=O)c2ccc([N+](=O)[O-])cc2)cc1`: -0.024% (inactive). Take `C[C@@H]1CCCCO[C@@H](CN(C)C(=O)Nc2ccc(C(F)(F)F)cc2)[C@@H](C)CN([C@H](C)CO)C(=O)c2cc(NS(=O)(=O)c3ccc(F)cc3)ccc2O1`: the activation was -0.031% (inactive). The same measure, in the same setting: the same measure for `Cc1oc2ccc(NS(=O)(=O)c3cccc4cccnc34)cc2c1C(=O)OC(C)C`: 0.423% (inactive). The same measure, in the same setting: the figure for `O=C(O)c1ccccc1CSc1nc2ccccc2n1Cc1ccccc1C(=O)O` is 0.715% (inactive); for `COc1cccc(NC(=O)N(C)C[C@@H]2Oc3cc(Br)ccc3S(=O)(=O)N([C@@H](C)CO)C[C@H]2C)c1` it is -0.016% (inactive); for `C[C@@H]1COc2cccc(NCCO)c2S(=O)(=O)N1` it is 0.028% (inactive).

For the compound `CC(NC(=O)c1ccccc1)C(=O)N/N=C/c1ccccc1` (centres undefined), the activation was 0.535% (inactive). Still for that read-out and setting: the figure for `O=C(CC1C(=O)Nc2ccccc2N1CC(=O)N1CCCC1)Nc1ccc(Br)cc1` (centres undefined) is -0.001% (inactive); for `COc1ccc(C(=O)CN2Cc3ccccc3C2=N)cc1` it is 0.166% (inactive). Regarding `COC(=O)c1cc(C(=O)N2CCN(c3ccccc3OC)CC2)cc([N+](=O)[O-])c1`, the activation is 0.681% (inactive). On the same count and under the same terms, the figure for `CCOC(=O)C1CCN(C(=O)c2ccc(NS(=O)(=O)c3ccc(F)cc3C)cc2)CC1` is 0.035% (inactive); for `COc1ccc(-c2ccc(C#N)c(SCC(=O)NCc3ccco3)n2)cc1OC` it is 2.59% (inactive); for `COc1ccc(Nc2nc(N)c(C(=O)c3ccc(F)cc3)s2)cc1` it is 0.551% (inactive). On the same count and under the same terms, the same measure for `O=C(N/N=C/c1ccc(O)c2ncccc12)c1cccc(Br)c1`: -0.037% (inactive); for `COc1ccc(N2CCN(C(CNC(=O)c3ccc4c(c3)OCO4)c3ccco3)CC2)cc1` (centres undefined): -0.08% (inactive). As to `O=C(Nc1ccccc1)N1C[C@@H]2[C@H](c3ccccc31)[C@H](CO)N2C(=O)c1ccccc1F`, the activation was 0.2% (inactive). Same read-out and setting: the figure for `CCOc1ccc(C(Nc2cccnc2)c2cc(Cl)c3cccnc3c2O)cc1` (centres undefined) is 8.68% (inactive); for `Cc1[nH]c2ccc(Br)cc2c(=O)c1CN1CCCCCC1` it is -0.013% (inactive); for `COc1ccc(NC(=O)N(C)[C@H]2C[C@H]3c4[nH]c5ccc(-c6ccc(OC)cc6)cc5c4CCN3C(=O)[C@H]2[C@H](C)O)cc1` it is 0.523% (inactive). Turning to `O=C(O)CSc1ncccn1`, the activation was -0.015% (inactive).

Turning to `Cc1n[nH]c(=S)n(/N=C/c2cccc([N+](=O)[O-])c2)c1=O`, the activation is -0.091% (inactive). Still for that read-out and setting: the figure for `COC(=O)C(C(C)C)N1CCc2c(C)nc3c(C#N)cnn3c21` (centres undefined) is 0.052% (inactive); for `O=[N+]([O-])/C=C/c1ccc2c(ccn2Cc2ccccc2)c1` it is -0.06% (inactive). On the same count and under the same terms, the figure for `CN(Cc1cccs1)C(=O)Cc1c[nH]c2ccccc12` is -0.024% (inactive); for `CSc1ccc(CNCC2CCCO2)cc1` (centres undefined) it is 0.842% (inactive).

Turning to `O=C(NNC(=O)c1ccccc1Cl)c1ccccc1Cl`, the activation was -0.034% (inactive). On the same count and under the same terms, the same measure for `CCN1CCc2c(sc(NC(=O)c3ccc4ccccc4c3)c2C(N)=O)C1`: -0.008% (inactive). Same read-out and setting: the figure for `Cn1c(=O)c(C#N)c(-c2ccc(F)cc2)c2cc(C(=O)c3cc(Cl)cc(Cl)c3O)cnc21` is -0.044% (inactive); for `CO[C@@H]1CN(C)C(=O)c2cc(NS(C)(=O)=O)ccc2OC[C@H](C)N(C(=O)C2CCCC2)C[C@H]1C` it is 0.988% (inactive). Same read-out and setting: the same measure for `CC1=C(Cl)C2=NS(=O)(=O)CCN2C=C1Cl`: 0.137% (inactive); for `COc1cc(C(=O)NC(=S)Nc2cccc3nc(C)ccc23)cc(OC)c1OC`: 1% (inactive). On to `Cn1c(NC(=O)c2ccc(F)cc2)c(-c2ccccn2)c(=O)c2ccccc21`, for which the activation was 0.155% (inactive). On the same count and under the same terms, the figure for `COc1ccc2c3c([nH]c2c1)[C@H](CO)N(C(=O)c1cccnc1)CC31CCN(Cc2ccccc2)CC1` is 0.094% (inactive); for `CCCN(C)C[C@@H]1OCc2cnnn2CCCC(=O)N([C@H](C)CO)C[C@H]1C` it is 1.19% (inactive). The same measure, in the same setting: the same measure for `CC(=O)N(C)C[C@@H]1Oc2ncc(-c3cccnc3)cc2C(=O)N([C@@H](C)CO)C[C@@H]1C`: 0.082% (inactive); for `CCOc1ccccc1N1C(=O)CC(Sc2nccc(C)n2)C1=O` (centres undefined): -0.095% (inactive).

For `COc1ccc(CN(C)Cc2nc(Cc3ccccc3Cl)no2)cc1OC`, the activation was -0.032% (inactive).

For `N#CC(C#N)=C1C=CC=CN1/C(=C\c1ccco1)C(=O)c1ccc(Br)cc1`, the activation is 8.49% (inactive). On the same count and under the same terms, the same measure for `COc1ccccc1-c1cc(C(=O)N2CCCc3ccccc32)no1`: 0.179% (inactive); for `CCCn1c(SCC(=O)NCc2ccc(C)cc2)n[nH]c1=O`: -0.121% (inactive).

On to `O=C(Nc1ccc(F)cc1)N1CC(=O)N2[C@H](CO)[C@H](c3ccc(C#Cc4ccc(F)cc4)cc3)[C@@H]2C1`, for which the activation is -0.031% (inactive). On the same count and under the same terms, the same measure for `S=C(SSC(=S)N1CCOCC1)N1CCOCC1`: -0.127% (inactive); for `C[C@H]1CCCCO[C@@H](CN(C)C(=O)Nc2ccc(C(F)(F)F)cc2)[C@@H](C)CN([C@@H](C)CO)C(=O)c2cc(NC(=O)CCC(F)(F)F)ccc2O1`: 0.048% (inactive). The same measure, in the same setting: the same measure for `COc1ccc(S(=O)(=O)N(C)C[C@H]2OCCCC[C@@H](C)Oc3ccc(NC(=O)NC(C)C)cc3C(=O)N([C@@H](C)CO)C[C@H]2C)cc1`: -0.013% (inactive). Still for that read-out and setting: the same measure for `O=C(Nc1ccccc1N1CCCCC1)c1cnccn1`: -0.052% (inactive); for `Oc1ccc(Br)cc1C=Nc1ccc2c3c(cccc13)CC2`: 0.056% (inactive).

For `C=CCn1c(SCC(=O)N(CC)C2CCS(=O)(=O)C2)nc2sc3c(c2c1=O)CCC3` (centres undefined), the activation is -0.061% (inactive).

For `COc1ccc(NC(=O)COc2ccc(C)c(C)c2)cc1S(=O)(=O)N1CCCCC1`, the activation was 0.164% (inactive). Still for that read-out and setting: the figure for `C=Cc1cnc([N+](=O)[O-])n1C` is -0.018% (inactive); for `COc1ccc(N(CC(=O)Nc2nccs2)S(=O)(=O)c2c(C)[nH]c(=O)[nH]c2=O)cc1` it is 0.033% (inactive); for `Cc1cccc(C(=O)NCc2ccc(S(N)(=O)=O)cc2)c1[N+](=O)[O-]` it is 0.077% (inactive).

For the compound `CN(Cc1nccn1C)C(=O)CC1C(=O)NCCN1CC(c1ccccc1)c1ccccc1` (centres undefined), the activation is 0.001% (inactive).

In the case of `O=C(COC(=O)COc1cccc(C(F)(F)F)c1)NC1CCS(=O)(=O)C1` (centres undefined), the activation is -0.034% (inactive). On the same count and under the same terms, the figure for `CO[C@H]1CN(C)C(=O)c2ccc(NC(=O)C3CCCCC3)cc2OC[C@H](C)NC[C@@H]1C` is 0.017% (inactive).
